From ChEMBL document CHEMBL1201862, “PubChem BioAssay data set” (2004)
Activity calls are given as the source filed them.

Columns and labels:
[1] = molecular target: Large T antigen (Simian virus 40, UniProt P03070); type: functional, Betapolyomavirus macacae;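 further: Confirmatory-stage PubChem screen for compounds that inhibit SV40 T antigen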
[2] = molecular target: T1, Histone-lysine N-methyltransferase NSD2 (Homo sapiens, UniProt O96028); type: biochemical
T1 sequence (O96028 whole entry): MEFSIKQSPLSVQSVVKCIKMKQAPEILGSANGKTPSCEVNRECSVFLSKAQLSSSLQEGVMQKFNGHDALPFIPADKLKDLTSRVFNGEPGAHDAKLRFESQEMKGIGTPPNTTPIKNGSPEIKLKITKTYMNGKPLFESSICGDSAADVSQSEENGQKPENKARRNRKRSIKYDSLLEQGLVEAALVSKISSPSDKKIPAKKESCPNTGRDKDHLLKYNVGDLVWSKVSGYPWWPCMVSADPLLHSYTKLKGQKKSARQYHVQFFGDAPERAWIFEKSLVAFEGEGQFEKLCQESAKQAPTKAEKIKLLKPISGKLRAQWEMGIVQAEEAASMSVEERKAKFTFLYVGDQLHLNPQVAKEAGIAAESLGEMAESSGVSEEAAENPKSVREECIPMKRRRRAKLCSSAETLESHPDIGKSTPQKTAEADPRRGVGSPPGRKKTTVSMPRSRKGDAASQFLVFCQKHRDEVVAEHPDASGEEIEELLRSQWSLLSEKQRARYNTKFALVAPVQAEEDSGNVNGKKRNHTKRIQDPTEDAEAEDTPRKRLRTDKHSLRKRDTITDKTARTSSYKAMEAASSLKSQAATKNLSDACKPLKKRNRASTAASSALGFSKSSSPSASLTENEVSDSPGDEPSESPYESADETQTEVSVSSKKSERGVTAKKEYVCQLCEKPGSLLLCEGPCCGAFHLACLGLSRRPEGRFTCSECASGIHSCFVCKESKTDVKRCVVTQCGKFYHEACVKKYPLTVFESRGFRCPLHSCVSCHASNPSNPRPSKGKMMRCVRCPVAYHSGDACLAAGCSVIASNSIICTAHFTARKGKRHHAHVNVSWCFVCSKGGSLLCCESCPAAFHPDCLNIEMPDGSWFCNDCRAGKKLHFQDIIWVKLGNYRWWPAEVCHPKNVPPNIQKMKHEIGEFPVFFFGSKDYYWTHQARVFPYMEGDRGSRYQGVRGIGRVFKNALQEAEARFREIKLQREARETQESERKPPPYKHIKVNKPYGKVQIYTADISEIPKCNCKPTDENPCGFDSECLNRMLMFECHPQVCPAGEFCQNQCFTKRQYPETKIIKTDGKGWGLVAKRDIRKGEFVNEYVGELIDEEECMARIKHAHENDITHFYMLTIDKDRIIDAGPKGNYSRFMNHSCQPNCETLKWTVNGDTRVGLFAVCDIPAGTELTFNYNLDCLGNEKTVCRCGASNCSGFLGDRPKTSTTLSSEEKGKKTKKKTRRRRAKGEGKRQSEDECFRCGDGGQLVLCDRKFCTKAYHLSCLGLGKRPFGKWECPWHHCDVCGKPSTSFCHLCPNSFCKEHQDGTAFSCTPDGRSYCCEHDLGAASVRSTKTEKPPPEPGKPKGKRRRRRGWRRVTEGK

[3] = molecular target: Kallikrein-7 (Homo sapiens, UniProt P49862); experiment: Fluorescence Intensity-based biochemical primary high throughput dose response assay to identify activators of kallikrein-7 (K7) zymogen.
[4] = control 3'UTR Renilla luciferase suppression, dose response, counter-screen for Shn3 inhibitor project, cell-based, Clone20-Shn3RL, cherry-picked (AID 624133); type: functional
[5] = molecular target: T2, Microphthalmia-associated transcription factor (Homo sapiens, UniProt O75030); experiment: TRPM1 promoter luciferase signal decrease, dose response, MITF inhibitor project, cell-based, SK-MEL-5, cherry-picked, set 3 (AID 493073); type: functional
T2 sequence (O75030 whole entry): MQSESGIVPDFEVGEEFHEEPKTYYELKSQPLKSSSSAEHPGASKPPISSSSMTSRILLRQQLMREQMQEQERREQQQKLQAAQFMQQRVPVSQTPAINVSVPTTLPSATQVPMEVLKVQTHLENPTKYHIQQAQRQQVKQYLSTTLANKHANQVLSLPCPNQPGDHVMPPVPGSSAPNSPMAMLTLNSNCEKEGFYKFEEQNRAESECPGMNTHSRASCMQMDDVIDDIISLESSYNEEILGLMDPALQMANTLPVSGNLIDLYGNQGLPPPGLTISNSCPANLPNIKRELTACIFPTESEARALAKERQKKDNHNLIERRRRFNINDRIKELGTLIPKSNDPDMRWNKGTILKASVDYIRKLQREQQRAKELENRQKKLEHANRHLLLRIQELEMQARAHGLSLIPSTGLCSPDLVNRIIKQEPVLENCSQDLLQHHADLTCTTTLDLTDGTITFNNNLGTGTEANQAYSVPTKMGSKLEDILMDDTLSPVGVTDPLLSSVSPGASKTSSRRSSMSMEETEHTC

[6] = Shn3 3'UTR reporter inhibitors, dose response, cell-based, Clone20 osteoblasts, firefly luciferase, cherry-picked (AID 624132); type: functional;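 further: firefly luciferase luminescence from reporter carrying the Shn3 3'UTR in osteoblasts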
[7] = molecular target: Nonstructural protein 1 (Influenza A virus, UniProt Q194T2); type: functional, Influenza A virus (A/California/07/2009(H1N1))
[8] = HepG2 cell cytotoxicity, dose response, cytotoxicity control for Shn3 inhibitor project, CellTiter-Glo, cherry-picked (AID 624134); type: functional, cell-based
[9] = tested on: INS1; experiment: beta cell apoptosis inhibitors, cytokine rescue, dose response, luminescence, retest (AID 449756); type: functional, cell-based; conditions: Rattus norvegicus;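 further: cell death triggered by IL-1 beta plus TNF-alpha plus IFN-gamma mixture; protective hits raise ATP signal compared with cytokine alone wells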
[10] = molecular target: Heat shock protein HSP 90-alpha (Homo sapiens, UniProt P07900); type: functional, organism-based
[11] = molecular target: T3, Voltage-gated N-type calcium channel alpha-1B subunit/Amyloid beta A4 precursor protein-binding family A member 1 (Homo sapiens, UniProt Q00975+Q02410); type: protein assay
[12] = molecular target: T3, Voltage-gated N-type calcium channel alpha-1B subunit/Amyloid beta A4 precursor protein-binding family A member 1; type: protein assay; remark: listed apart in the source
[13] = molecular target: T4, SUMO-activating enzyme (Homo sapiens, UniProt Q9UBT2); experiment: SUMOylation inhibitor hit validation, confirmation, SUMOylation inhibitor project, biochemical, AlphaScreen (AID 2018); type: functional
[14] = molecular target: T4, SUMO-activating enzyme; experiment: inhibitors of in vitro SUMOylation cascade, primary screen, biochemical, HTRF, uHTS (AID 2006); type: protein-complex assay
[15] = cytotoxicity in HEK-293T cells, dose response, cytotoxicity control for TCR NF-kB inhibitor project, luminescence, T-cell screen hits (AID 489026); type: functional, cell-based;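 further: cells exposed to compound about 14 hours before the viability readout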
[16] = NIH:OVCAR-3 ovarian cancer cell cytotoxicity, dose response, PAX8 inhibitor project, plate reader, dry powder samples (AID 743044); type: functional, cell-based
[17] = molecular target: Paired box protein Pax-8 (Homo sapiens, UniProt Q06710); experiment: inhibitors of PAX8-driven TPO luciferase reporter, dose response, RMG-I cells, cherry-pick (AID 687027); type: functional, cell-based;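 further: luciferase reporter driven by Pax8 target thyroperoxidase promoter measured by SteadyGlo luminescence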
[18] = cytotoxicity in OVCAR8 ovarian cancer cells, dose response, PAX8 project, cell-based, plate reader, dry powder samples (AID 743197); type: functional; conditions: OVCAR-8
[19] = tested on: Vero; experiment: host cell cytotoxicity of antiviral hits, dose response, cytotoxicity control for West Nile virus antiviral project, secondary assay (AID 1650); type: functional, Chlorocebus sabaeus; conditions: Chlorocebus sabaeus, Vero
[20] = growth suppression of beta-catenin-knockout colon cells, dose response, cell-based, HCT116, human colon tumor (AID 1045); type: functional;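 further: HCT116 colon tumor cells with beta catenin knocked out; cells exposed to compound for 60 hours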
[21] = molecular target: Induced myeloid leukemia cell differentiation protein Mcl-1 (Homo sapiens, UniProt Q07820); type: functional
[22] = growth suppression of PTEN-null colon cells, dose response, cell-based, HCT116 PTEN knockout (AID 1047); type: functional;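 further: HCT116 colon tumor cells with PTEN knocked out; cells exposed to compound for 60 hours before readout; potency for loss of cell viability measured by luminescence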
[23] = Luminescence Cell-Based Dose Retest to Confirm Inhibitors of Cancer Stem Cells. [Related pubchem assays (depositor defined):AID2717, AID2721]; type: functional, Homo sapiens; conditions: Homo sapiens
[24] = molecular target: T5, Aminopeptidase N (Plasmodium falciparum FcB1/Columbia, UniProt O96935); experiment: P. falciparum M1AAP inhibitors, biochemical, fluorogenic H-Leu-NHMec substrate, 1536-well (AID 1445); parameters: species or system Plasmodium falciparum 3D7, 3D7
T5 sequence (O96935 whole entry): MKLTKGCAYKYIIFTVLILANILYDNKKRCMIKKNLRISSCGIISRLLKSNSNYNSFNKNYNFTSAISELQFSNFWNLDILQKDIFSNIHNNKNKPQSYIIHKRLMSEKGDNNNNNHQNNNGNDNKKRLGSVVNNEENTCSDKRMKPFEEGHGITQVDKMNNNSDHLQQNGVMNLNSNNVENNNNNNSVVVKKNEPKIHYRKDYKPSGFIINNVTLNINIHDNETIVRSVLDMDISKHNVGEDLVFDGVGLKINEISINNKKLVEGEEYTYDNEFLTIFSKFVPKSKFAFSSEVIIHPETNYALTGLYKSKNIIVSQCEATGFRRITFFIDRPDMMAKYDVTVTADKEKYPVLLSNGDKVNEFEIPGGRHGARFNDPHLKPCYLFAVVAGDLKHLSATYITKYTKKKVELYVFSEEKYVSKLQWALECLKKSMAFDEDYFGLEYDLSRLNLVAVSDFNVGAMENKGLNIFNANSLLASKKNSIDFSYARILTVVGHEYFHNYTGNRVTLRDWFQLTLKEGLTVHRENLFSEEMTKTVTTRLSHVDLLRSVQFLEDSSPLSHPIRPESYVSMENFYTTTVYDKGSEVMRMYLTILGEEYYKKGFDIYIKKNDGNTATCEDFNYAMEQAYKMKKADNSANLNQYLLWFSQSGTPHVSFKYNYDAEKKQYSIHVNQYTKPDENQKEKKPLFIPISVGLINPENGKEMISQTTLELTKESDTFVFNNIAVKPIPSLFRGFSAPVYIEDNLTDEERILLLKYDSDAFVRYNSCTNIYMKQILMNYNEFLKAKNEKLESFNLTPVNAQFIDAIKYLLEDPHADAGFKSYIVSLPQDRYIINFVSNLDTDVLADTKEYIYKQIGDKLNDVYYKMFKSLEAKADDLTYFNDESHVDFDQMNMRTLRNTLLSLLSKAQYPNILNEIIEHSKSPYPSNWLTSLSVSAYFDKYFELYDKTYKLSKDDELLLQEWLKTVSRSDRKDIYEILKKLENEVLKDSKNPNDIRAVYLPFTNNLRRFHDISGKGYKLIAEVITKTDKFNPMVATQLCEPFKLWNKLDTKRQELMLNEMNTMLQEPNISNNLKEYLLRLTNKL

[25] = non-specific cell cytotoxicity, dose response, cytotoxicity control for PAX8 inhibitor project, plate reader, dry powder samples (AID 743021); type: functional, cell-based

Chain of Nonstructural protein 1 (Q194T2 whole entry): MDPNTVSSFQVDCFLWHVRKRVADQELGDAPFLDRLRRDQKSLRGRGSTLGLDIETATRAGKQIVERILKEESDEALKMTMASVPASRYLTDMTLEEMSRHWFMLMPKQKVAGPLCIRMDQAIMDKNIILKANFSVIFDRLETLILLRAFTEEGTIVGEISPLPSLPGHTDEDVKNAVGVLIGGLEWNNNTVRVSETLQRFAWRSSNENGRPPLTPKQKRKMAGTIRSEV
T3 sequence (Q00975 whole entry): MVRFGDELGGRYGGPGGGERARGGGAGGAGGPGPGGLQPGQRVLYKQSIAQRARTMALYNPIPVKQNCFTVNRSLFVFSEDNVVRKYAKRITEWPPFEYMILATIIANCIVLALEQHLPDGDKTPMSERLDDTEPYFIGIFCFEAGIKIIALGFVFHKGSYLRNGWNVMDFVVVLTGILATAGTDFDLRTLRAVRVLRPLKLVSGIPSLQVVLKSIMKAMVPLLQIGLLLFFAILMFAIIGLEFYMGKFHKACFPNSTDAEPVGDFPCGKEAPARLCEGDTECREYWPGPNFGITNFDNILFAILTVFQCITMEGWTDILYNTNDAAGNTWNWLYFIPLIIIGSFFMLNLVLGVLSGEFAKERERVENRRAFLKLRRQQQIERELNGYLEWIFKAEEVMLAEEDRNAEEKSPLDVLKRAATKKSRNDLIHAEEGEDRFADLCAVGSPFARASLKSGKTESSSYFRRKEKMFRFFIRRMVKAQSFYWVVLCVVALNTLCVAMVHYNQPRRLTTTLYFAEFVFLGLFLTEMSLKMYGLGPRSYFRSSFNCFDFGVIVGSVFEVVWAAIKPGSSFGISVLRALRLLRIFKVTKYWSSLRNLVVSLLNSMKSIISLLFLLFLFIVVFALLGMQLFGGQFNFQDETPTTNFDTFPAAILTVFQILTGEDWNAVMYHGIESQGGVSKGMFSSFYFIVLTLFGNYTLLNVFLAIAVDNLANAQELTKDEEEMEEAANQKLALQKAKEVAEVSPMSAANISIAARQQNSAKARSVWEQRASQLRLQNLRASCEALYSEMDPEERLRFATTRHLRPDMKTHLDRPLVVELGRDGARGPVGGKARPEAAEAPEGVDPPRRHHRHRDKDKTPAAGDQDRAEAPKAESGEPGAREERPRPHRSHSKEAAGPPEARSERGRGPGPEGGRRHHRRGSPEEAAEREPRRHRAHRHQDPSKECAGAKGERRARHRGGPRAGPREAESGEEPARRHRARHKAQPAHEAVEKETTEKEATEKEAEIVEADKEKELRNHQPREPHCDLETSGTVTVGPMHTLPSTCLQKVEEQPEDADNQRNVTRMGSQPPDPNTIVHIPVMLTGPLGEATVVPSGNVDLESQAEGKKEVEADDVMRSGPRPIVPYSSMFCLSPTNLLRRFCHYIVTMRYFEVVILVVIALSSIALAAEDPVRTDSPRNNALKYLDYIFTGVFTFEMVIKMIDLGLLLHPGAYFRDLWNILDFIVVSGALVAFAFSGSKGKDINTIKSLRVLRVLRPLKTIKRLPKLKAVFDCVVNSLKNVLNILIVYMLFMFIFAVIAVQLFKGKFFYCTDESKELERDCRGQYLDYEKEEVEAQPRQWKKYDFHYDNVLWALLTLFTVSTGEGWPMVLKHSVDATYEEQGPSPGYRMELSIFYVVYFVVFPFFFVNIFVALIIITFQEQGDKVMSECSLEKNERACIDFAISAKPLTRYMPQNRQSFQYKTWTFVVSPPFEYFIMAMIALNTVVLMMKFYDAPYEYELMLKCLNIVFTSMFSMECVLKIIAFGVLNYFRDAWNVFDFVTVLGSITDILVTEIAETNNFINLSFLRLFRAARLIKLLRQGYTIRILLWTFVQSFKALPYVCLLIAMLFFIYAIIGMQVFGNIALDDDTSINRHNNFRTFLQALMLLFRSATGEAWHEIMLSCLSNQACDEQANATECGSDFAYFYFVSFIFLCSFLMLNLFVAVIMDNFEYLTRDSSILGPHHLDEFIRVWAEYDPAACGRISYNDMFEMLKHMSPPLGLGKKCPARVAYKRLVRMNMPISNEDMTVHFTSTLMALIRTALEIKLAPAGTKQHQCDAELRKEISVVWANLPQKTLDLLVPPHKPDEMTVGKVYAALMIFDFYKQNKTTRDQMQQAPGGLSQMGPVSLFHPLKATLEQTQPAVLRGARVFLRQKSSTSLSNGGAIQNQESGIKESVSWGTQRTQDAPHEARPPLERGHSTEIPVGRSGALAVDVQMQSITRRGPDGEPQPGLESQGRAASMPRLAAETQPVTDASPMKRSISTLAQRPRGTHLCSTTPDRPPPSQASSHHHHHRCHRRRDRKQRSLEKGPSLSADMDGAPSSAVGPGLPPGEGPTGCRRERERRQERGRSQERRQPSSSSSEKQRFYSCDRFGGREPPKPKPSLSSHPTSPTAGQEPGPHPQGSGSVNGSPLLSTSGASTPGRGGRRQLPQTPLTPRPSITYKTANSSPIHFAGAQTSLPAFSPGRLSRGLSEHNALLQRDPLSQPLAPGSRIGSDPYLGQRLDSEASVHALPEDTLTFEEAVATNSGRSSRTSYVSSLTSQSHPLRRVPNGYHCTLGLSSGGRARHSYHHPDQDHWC
T3 sequence (Q02410 whole entry): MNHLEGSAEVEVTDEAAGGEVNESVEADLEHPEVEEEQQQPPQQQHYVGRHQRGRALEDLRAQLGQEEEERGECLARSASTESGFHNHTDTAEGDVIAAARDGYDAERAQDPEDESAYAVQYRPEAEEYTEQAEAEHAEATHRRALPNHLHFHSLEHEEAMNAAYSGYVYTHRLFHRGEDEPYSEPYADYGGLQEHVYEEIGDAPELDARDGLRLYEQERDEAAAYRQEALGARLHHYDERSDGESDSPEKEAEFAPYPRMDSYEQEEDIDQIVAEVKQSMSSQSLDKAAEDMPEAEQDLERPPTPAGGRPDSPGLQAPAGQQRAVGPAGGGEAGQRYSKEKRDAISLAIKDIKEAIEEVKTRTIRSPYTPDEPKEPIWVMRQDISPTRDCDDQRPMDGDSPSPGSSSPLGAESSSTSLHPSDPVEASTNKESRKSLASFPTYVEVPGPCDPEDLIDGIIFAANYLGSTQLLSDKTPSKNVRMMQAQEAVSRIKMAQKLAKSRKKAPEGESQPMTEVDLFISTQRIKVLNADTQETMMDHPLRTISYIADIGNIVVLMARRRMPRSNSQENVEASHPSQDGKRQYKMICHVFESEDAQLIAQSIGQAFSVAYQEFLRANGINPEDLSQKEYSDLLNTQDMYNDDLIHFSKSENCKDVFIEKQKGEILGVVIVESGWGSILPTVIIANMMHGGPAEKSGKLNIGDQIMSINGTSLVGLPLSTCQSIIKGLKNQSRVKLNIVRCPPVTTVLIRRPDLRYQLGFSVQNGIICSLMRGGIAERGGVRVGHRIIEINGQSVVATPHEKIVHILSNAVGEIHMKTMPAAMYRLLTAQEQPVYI
Chain of Paired box protein Pax-8 (Q06710 whole entry): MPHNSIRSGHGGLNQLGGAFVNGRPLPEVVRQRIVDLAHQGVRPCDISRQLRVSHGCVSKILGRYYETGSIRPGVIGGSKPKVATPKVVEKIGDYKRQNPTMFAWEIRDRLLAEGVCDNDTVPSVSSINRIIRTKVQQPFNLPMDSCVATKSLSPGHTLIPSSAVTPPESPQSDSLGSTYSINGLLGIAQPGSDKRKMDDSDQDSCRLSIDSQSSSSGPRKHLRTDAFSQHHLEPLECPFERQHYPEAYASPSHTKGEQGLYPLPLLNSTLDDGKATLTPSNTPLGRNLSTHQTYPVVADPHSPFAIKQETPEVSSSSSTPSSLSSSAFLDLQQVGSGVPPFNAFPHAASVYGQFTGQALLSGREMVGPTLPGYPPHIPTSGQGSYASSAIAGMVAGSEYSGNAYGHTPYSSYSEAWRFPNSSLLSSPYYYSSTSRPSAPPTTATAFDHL
Chain of Kallikrein-7 (P49862 whole entry): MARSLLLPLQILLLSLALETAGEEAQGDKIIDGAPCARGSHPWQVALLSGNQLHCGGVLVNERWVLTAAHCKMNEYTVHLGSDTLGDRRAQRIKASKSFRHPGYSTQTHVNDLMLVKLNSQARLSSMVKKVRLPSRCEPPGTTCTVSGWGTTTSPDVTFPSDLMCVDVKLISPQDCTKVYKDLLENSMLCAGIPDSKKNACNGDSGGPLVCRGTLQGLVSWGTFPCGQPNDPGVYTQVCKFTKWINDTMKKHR
Chain of Induced myeloid leukemia cell differentiation protein Mcl-1 (Q07820 whole entry): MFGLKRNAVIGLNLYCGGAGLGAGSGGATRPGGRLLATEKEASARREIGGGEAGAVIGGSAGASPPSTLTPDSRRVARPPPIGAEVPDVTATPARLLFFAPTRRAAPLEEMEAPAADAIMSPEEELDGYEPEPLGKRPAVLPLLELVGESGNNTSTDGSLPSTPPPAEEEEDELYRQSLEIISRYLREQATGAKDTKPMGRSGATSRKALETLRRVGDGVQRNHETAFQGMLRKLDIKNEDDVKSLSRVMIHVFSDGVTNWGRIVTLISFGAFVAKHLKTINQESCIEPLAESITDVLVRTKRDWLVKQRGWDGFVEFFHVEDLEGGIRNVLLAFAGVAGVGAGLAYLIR

## O=c1c2ccccc2nc(COc2ccccc2)n1/N=C/c1ccc(O)c(O)c1
[1]
  IC50: 11.7 µM (active)
[2]
  AC50: 8.78 µM (active)

## CC(C)Nc1nc(-c2ccccc2CO)c2sccc2n1
[3]
  EC50: > 69.6 µM (inactive)

## O=C(Nc1nc(-c2ccccn2)cs1)c1ccc(F)c(S(=O)(=O)N2CCOCC2)c1
[4]
  AC50: 0.711 µM (active)
[5]
  AC50: 5.7 µM (active)
[6]
  AC50: 1.32 µM (active)
[7]
  IC50: 7.88 µM (active)
[8]
  AC50: > 70 µM (inactive)
[9]
  AC50: 1.59 µM (active)

## CCOC(=O)c1ccc(N2C(=O)C=CC2=O)cc1
[10]
  AC50: 0.691 µM (active)
[11]
  IC50: 2.46 µM (active)
[12]
  IC50: 6.05 µM (active)

## COc1ccc2[nH]c3c(=O)n(CCCC(=O)NC4CCC(C)CC4)c(=S)[nH]c3c2c1 (stereo unspecified)
[13]
  IC50: 38.1 µM (active)
[14]
  IC50: 22.7 µM (active)

## COc1ccc(NC(=O)CSc2nn3c(=O)c(C)nnc3s2)cc1
[7]
  IC50: 8.25 µM (active)

## COc1cccc(N2CCN(C(=O)c3cn(Cc4ccccc4)nc3-c3cccnc3)CC2)c1
[15]
  IC50: > 80 µM (inactive)

## CCn1ccnc1CNCc1cn(-c2cc(C)ccc2C)nc1-c1ccccc1
[7]
  IC50: 11.8 µM (active)

## C[C@@H]1CN([C@H](C)CO)S(=O)(=O)c2ccc(C#Cc3ccncc3)cc2O[C@H]1CN(C)C(=O)C1CCCCC1
[16]
  AC50: 17.1 µM (active)
[17]
  AC50: 3.13 µM (active)

## CN(C)c1cccc2c(S(=O)(=O)NC(=O)[C@H]3O[C@@H](n4cnc5c(N)ncnc54)[C@H](O)[C@@H]3O)cccc12
[3]
  EC50: 8.16 µM (active)

## O=C(Nc1ccncc1)C1CCCN(S(=O)(=O)c2cccc3cccnc23)C1 (stereo unspecified)
[15]
  IC50: 67.5 µM (inactive)

## C[C@@H]1CCCCO[C@H](CN(C)Cc2ccccc2)[C@@H](C)CN([C@@H](C)CO)C(=O)c2cc(NC(=O)Nc3ccc(C(F)(F)F)cc3)ccc2O1
[16]
  AC50: 44.5 µM (active)
[18]
  AC50: 33.6 µM (active)
[17]
  AC50: 19 µM (active)

## CCN=c1ccc(Br)cc(C(=O)/C=C/c2c(Cl)cccc2Cl)c1O
[19]
  CC50: > 100 µM (active)
[20]
  EC50: 1.67 µM (active)
[21]
  IC50: 2.32 µM (active)
[22]
  EC50: 1.92 µM (active)

## O=C(N/N=C(\Cc1ncc[nH]1)c1ccccc1)c1ccncc1
[7]
  IC50: 2.46 µM (active)
[23]
  AC50: 3.42 µM (active)
[24]
  IC50: 21.4 µM (active)
[9]
  AC50: 7.38 µM (active)

## COc1cc(-c2noc(C)c2/C=C/c2cccc([N+](=O)[O-])c2)cc(OC)c1OC
[15]
  IC50: 68.5 µM (inactive)

## Cn1c(=O)[nH]c(=O)c2c1nc(N1CCCCC1)n2CCCSc1nc2ccccc2s1
[19]
  CC50: > 100 µM (active)

## Cc1nc2sc(C(=O)OC(C)C)c(N)c2c(C)c1C
[11]
  IC50: > 50 µM (inactive)
[12]
  IC50: 4.25 µM (active)

## O=C(Nc1ccc(N2CCOCC2)cc1)c1ccc(Cl)c(S(=O)(=O)N2CCCCC2)c1
[4]
  AC50: 1.58 µM (active)
[6]
  AC50: 0.81 µM (active)
[15]
  IC50: > 80 µM (inactive)
[8]
  AC50: 1.18 µM (active)

## COc1ccc(CN(C)C[C@@H]2OCCCC[C@H](C)Oc3ccc(NS(=O)(=O)c4ccc(C)cc4)cc3C(=O)N([C@H](C)CO)C[C@H]2C)cc1
[25]
  AC50: 64.6 µM (active)
[18]
  AC50: 44.6 µM (active)
[17]
  AC50: 16.8 µM (active)

## CC1=C(C(=O)O)N2C(=O)C(NC(=O)c3ccccc3Cl)C2SC1 (stereo unspecified)
[11]
  IC50: > 50 µM (inactive)
[12]
  IC50: 0.749 µM (active)

## Cc1cc(NCCCCO)n2c(nc3ccccc32)c1C#N
[3]
  EC50: > 69.5 µM (inactive)
